Read-outs that look alike come from different tables or passages of the source.
Key:
[1] = system: HCC827 (EGFR exon19 E746-A750 deletion); assay: In vitro growth inhibition (GI50), HCC827; type: cell-based; settings: Homo sapiens; HCC827, EGFR DelE746-A750
Description: Tumor cell line is an effective cell model for studying the inhibition of tumor cell growth or proliferation in vitro. In the present invention, a representative tumor cell line was selected to determine the cell growth inhibition activity of the present compound. All cell lines used were from ATCC, DSMZ, and the Cell Bank of the Chinese Academy of Sciences. Cell culture conditions and methods were in accordance with the requirements of each cell line. Cells were subcultured in vitro for no more than 3 passages each time, and as required, single-clone purification and identification of cell lines could be carried out.
The cell culture media used were RPMI1640 (Gibco), MEM (Gibco), McCOY'S5A (Gibco), and IMDM (Gibco). The complete medium was prepared by supplement with 5˜20% fetal calf serum (Gibco), 1% double-antibiotics (10000 units/mL penicillin and 10000 units/mL), 2 mM glutamine or 1 mM sodium pyruvate, respectively.
Human epidermal cancer cell line A431 (EGFR WT, amplification and high expression, from Shanghai Cell Bank of Chinese Academy of Sciences and ATCC), human lung cancer cell line NCI-H292 (EGFR WT, purchased from Shanghai Cell Bank of Chinese Academy of Sciences), NSCLC cell lines PC-9 and HCC827 (EGFR exon19 E746-A750 deletion, two cell lines are sensitive to the first-generation EGFR PTK inhibitor), NSCLC cell line NCI-H1975 (EGFR L858R/T790M and the first-generation EGFR inhibitor resistance, ATCC) were cultured with 1×RPMI1640 complete medium (supplement with 10% FBS), respectively.
Adherent cells were digested with 0.25% pancreatin-EDTA (Gibco). The suspension cells were collected by centrifugation. The supernatant was discarded and the cell pellet was resuspended and counted. Different cell concentrations (5˜10×10^4 cells/mL) were prepared according to the growth cycle of each cell line and then seeded on a 96-well plate (Corning), 100 μL/well. The cells were incubated overnight at 37° C., 5% CO2. The compounds were added to the cells on the second day with 2 wells in parallel. The final concentration of organic solvent shall not exceed 1%. The cells were continually incubated for 3 to 5 days, and then subjected to MTT assay.
The compound of the present invention and the control compound were dissolved in DMSO (Sigma) respectively, with the purity of more than 98%. The compound was stored in a concentration of 10 mM at −20° C. and diluted to 2- or 10-fold series prior to use.
Dojindo CCK8 reagent kit was used as MTT assay. THERMO […] FC meter was used as microplate reader.
For adherent cells, culture medium was removed and immediately replaced with the fresh prepared medium which contains 10% CCK8 reagent (100 μL/well). For the suspension cells, CCK8 was directly added to 10% of the final concentration. The cells were continually incubated for 1˜4 h. When a dark yellow color could be observed in the solvent control wells, the absorbance value at OD450 nm was measured and the cell growth rate was calculated according to the following formula: Cell Growth Rate (%)=100*(T−T0)/(C−T0) T=optical density of drug treatment cell well—optical density of blank control well; T0=optical density of cell well before drug treatment—optical density of blank control well; C=optical density of cell well of solvent control group—optical density of blank control well. The concentration value of 50% inhibition of cell growth (GI50) was calculated according to the drug concentration and cell growth rate curve. The experiment was independently repeated 1˜3 times, and subject to biological statistical analysis. 4. Experimental Results
Tumor cell growth inhibition test was performed by selecting representative compounds (compounds 4, 11, 12, 16, 27, 68, 71, 77, 79, 89 and 116 of the present invention). The initial concentration of the compound was 5,000 nM, then it was serially diluted by 2-fold or 10-fold to 0.01 nM. The GI50 value of each test compound was calculated according to the GI50 assay and calculation method. […]

RS4; 11 (FLT3 wild type) = assay: In vitro growth inhibition (GI50), RS4; 11; type: cell-based, human; settings: for GI50: Homo sapiens; for GI50 value, RS4; 11 (in words) / inhibitory effect on RS4; 11: FLT3 wild type high-expressing cells RS4; for inhibitory effect on RS4; 11: 11, under high concentrations
[2] = RS4-11, Cell lines of leukemia, read-out: GI 50 RS4: 11 FLT3 (WT)
[3] = FLT3 wild-type high expressing cell RS4, 11, Table 3, read-out: GI50 value, RS4, 11
[4] = RS4, 11, FLT3 WT, read-out: GI50

SMILES | GI50 [1] [µM] | GI50 (RS4; 11 (FLT3 wild type); [2]) [µM] | GI50 (RS4; 11 (FLT3 wild type); [3]) [µM] | GI50 (RS4; 11 (FLT3 wild type); [4]) [µM] | GI50 value, RS4; 11 (in words) (RS4; 11 (FLT3 wild type); 11) | inhibitory effect on RS4; 11 (RS4; 11 (FLT3 wild type))
CC(C)(C)c1cc(NC(=O)Nc2ccc(-n3cnc4cc(OCCO)ccc43)cc2)no1 [Compound 11, 1-(5-tert-butyl-isoxazol-3-yl)-3-{4-[5-(2-hydroxy-ethoxyl)-benzimidazol-1-yl]-phenyl]-urea] | > 2.5 | 0.01 to 0.1 | 0.05 to 0.8 | 0.0574 |  | 
COc1ccc2c(c1)ncn2-c1ccc(NC(=O)Nc2cc(C(C)(C)C)n[nH]2)cc1 [Compound 71, 1-(5-tert-butyl-2H-pyrazol-3-yl)-3-[4-(5-methoxyl-benzimidazol-1-yl)-phenyl]-urea] | > 2.5 | > 1 |  | 2.75 | micromolar range | no obvious inhibitory effect
CC(C)(C)c1cc(NC(=O)Nc2ccc(-n3cnc4cc(O)ccc43)cc2)no1 [Compound 4, 1-(5-tert-butyl-isoxazol-3-yl)-3-[4-(5-hydroxy-benzimidazol-1-yl)-phenyl]-urea] | > 2.5 | 0.1 to 1 | 0.05 to 0.8 | 0.234 |  | 
COCCOc1ccc2c(c1)ncn2-c1ccc(NC(=O)Nc2cc(C(C)(C)C)n[nH]2)cc1 [Compound 77, 1-(5-tert-butyl-2H-pyrazol-3-yl)-3-{4-[5-(2-methoxyl-ethoxyl)-benzimidazol-1-yl]-phenyl}-urea] | > 2.5 | > 1 |  | 2.49 | micromolar range | no obvious inhibitory effect
CC(C)(C)c1cc(NC(=O)Nc2ccc(-n3cnc4cc(OCCO)ccc43)cc2)[nH]n1 [Compound 79, 1-(5-tert-butyl-2H-pyrazol-3-yl)-3-{4-[5-(2-hydroxy-ethoxyl)-benzimidazol-1-yl]-phenyl]urea] | > 2.5 | > 1 | 0.05 to 0.8 | 0.768 |  | 
CC(C)(C)c1cc(N)n(C(=O)Nc2ccc(-n3cnc4ccccc43)cc2)n1 [Compound 116, 5-amino-3-tert-butyl-pyrazol-1-carboxylic acid (4-benzimidazol-1-yl-phenyl)-amide] | > 2.5 | > 1 |  | 2.1 | micromolar range | no obvious inhibitory effect
CC(C)(C)c1cc(NC(=O)Nc2ccc(-n3cnc4ccc(OCCN5CCOCC5)cc43)cc2)no1 [Compound 27, 1-(5-tert-butyl-isoxazol-3-yl)-3-{4-[6-(2morpholin-4-yl-ethoxyl)-benzimidazol-1-yl]-phenyl}-urea] | > 2.5 | > 1 |  | 2.38 | micromolar range | no obvious inhibitory effect
CC(C)(C)c1cc(NC(=O)Nc2ccc(-n3cnc4ccccc43)cc2)[nH]n1 [Compound 68, 1-(4-benzimidazol-1-yl-phenyl)-3-(5-tert-butyl-2H-pyrazol-3-yl)-urea] | > 2.5 | > 1 |  | 3.5 | micromolar range | no obvious inhibitory effect
CC(C)(C)c1cc(NC(=O)Nc2ccc(-n3cnc4cc(OCCN5CCOCC5)ccc43)cc2)no1 [Compound 16, 1-(5-tert-butyl-isoxazol-3-yl)-3-{4-[5-(2-morpholin-4-yl-ethoxyl)-benzimidazol-1-yl]-phenyl}-urea] | > 2.5 | > 1 |  | 1.75 | micromolar range | no obvious inhibitory effect
CC(C)(C)c1cc(NC(=O)Nc2ccc(-n3cnc4cc(OCCN5CCOCC5)ccc43)cc2)[nH]n1 [Compound 89, 1-(5-tert-butyl-2H-pyrazol-3-yl)-3-{4-[5-(2-morpholin-4-yl-ethoxyl)-benzimidazol-1-yl]-phenyl}-urea] | > 2.5 | > 1 |  | 2.09 | micromolar range | no obvious inhibitory effect

From patent US10647680B2, “Urea compound, preparation method therefor and medical use thereof” (Ancureall Pharmaceutical (Shanghai) Co., Ltd., priority 2016, dated 2020)
